Tests used:
[1] = biological target: [Pyruvate dehydrogenase (acetyl-transferring)] kinase isozyme 2, mitochondrial (Homo sapiens, UniProt Q15119)
Description: Inhibition of human PDHK2 using PDHKtide and Mn2+ as substrates pre-incubated for 20 min followed by addition of [gamma-33P]-ATP measured after 2 hrs by Radiometric Hotspot kinase assay

[2] = biological target: [Pyruvate dehydrogenase (acetyl-transferring)] kinase isozyme 3, mitochondrial (Homo sapiens, UniProt Q15120)
Description: Inhibition of human PDHK3 using myelin basic protein as substrate pre-incubated for 20 min followed by addition of [gamma-33P]-ATP measured after 2 hrs by Radiometric Hotspot kinase assay

[3] = biological target: [Pyruvate dehydrogenase (acetyl-transferring)] kinase isozyme 4, mitochondrial (Homo sapiens, UniProt Q16654)
Sequence of [Pyruvate dehydrogenase (acetyl-transferring)] kinase isozyme 4, mitochondrial (Q16654 whole entry): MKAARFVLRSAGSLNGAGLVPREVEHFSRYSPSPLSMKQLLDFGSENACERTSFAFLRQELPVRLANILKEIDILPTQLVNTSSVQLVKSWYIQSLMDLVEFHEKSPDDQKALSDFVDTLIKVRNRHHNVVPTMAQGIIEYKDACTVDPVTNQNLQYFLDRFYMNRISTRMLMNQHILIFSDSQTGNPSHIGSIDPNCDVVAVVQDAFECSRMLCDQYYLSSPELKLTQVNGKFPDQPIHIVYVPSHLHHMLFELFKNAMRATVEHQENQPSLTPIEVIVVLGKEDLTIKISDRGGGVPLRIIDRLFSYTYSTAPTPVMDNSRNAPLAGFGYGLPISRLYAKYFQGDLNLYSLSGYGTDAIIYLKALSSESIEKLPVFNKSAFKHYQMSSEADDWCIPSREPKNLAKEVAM
Description: Inhibition of human PDHK4 using myelin basic protein as substrate pre-incubated for 20 min followed by addition of [gamma-33P]-ATP measured after 2 hrs by Radiometric Hotspot kinase assay

Sequence of [Pyruvate dehydrogenase (acetyl-transferring)] kinase isozyme 3, mitochondrial (Q15120 whole entry): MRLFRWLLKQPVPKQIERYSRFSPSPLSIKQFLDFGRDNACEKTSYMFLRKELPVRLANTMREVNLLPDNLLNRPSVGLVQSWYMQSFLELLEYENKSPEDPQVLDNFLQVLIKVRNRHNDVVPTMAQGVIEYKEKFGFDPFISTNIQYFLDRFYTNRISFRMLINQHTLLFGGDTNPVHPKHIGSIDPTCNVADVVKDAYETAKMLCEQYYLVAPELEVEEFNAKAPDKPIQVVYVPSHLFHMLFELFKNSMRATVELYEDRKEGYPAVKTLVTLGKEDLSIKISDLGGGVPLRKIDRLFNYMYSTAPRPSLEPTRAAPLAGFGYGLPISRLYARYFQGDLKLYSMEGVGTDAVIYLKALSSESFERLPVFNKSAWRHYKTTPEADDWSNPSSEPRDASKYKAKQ

Row | Compound | IC50 [1] | IC50 [2] | IC50 [3]
1 | O=C(O)c1ccc(Br)c(NS(=O)(=O)c2ccc(Cl)s2)c1 | > 30 µM | > 30 µM | > 30 µM
2 | O=C(O)c1ccc(Br)c(NS(=O)(=O)c2cc(Cl)cc(Cl)c2)c1 | > 30 µM | > 30 µM | 17 µM
3 | COc1cc(C(=O)O)cc(NS(=O)(=O)c2cc(Cl)ccc2C)c1Cl | > 30 µM | > 30 µM | > 30 µM
4 | Cc1ccc(Cl)cc1S(=O)(=O)Nc1cc(C#N)ccc1Br | > 30 µM | > 30 µM | 15.5 µM
5 | Cc1ccc(Cl)cc1S(=O)(=O)Nc1cc(Br)cc(C(=O)O)c1 | > 30 µM | > 30 µM | 23.6 µM
6 | CSc1ccc(C(=O)O)cc1NS(=O)(=O)c1cc(Cl)ccc1C | > 30 µM | > 30 µM | > 30 µM
7 | Cc1ccc(Cl)cc1S(=O)(=O)Nc1cc(C(=O)O)ccc1Br | > 30 µM | > 30 µM | 30 µM
8 | O=C(O)C(Cl)Cl [DICHLOROACETIC ACID] | > 5000 µM | > 5000 µM | 108 µM
